From patent US4395969A (priority 1981, dated 1983)
“And” between values parts separate entries of the source, which are not always exact repeats. Equal values may be shown once. Read-outs that look alike come from different tables or passages of the source.

Columns and labels:
chinook salmon [1] = settings: chinook salmon, in vivo, 96 h
bridgelip sucker = assay: Selectivity and safety indices of salmonids versus the bridgelip sucker; type: in vivo, Catastomus columbianus; settings: 96 h
Description: (§1) Delineation bioassays determined primarily the LC50 and LC100 of sucker and stickleback and the LC0 and LC50 of salmonids.
(§2) The statistical LC1, LC50, and LC99 were interpolated and/or extrapolated using probit graph paper to approximate the LC0, LC50, and LC100 when the latter set of values was not closely determined by single concentrations in a series.
(§3) The approximate LC50 and LC100 of the target fishes (threespine and brook sticklebacks and bridgelip and white suckers) are tabulated in Table 1. The 96-hour selectivity and safety indices of selected species of salmonids versus the three-spine stickleback are tabulated in Table 3.
(§4) Threespine stickleback, brook stickleback, bridgelip sucker, white sucker, chinook salmon, coho salmon, sockeye salmon, kokanee, Kamloops trout, cutthroat trout, and brook trout were treated with various concentrations of 2, 2, 2, 1-tetrachloroethyl diethyl phosphate and at various temperatures to determine approximate selectivity and safety indices. The approximate LC50 and LC100 of the target fishes (threespine and brook sticklebacks and bridgelip and white suckers) are tabulated in Table 5. The 96-hour selectivity and safety indices of selected species of salmonids versus the threespine stickleback are tabulated in Table 7.

chinook salmon [2] = assay: Long-term static bioassay, chinook salmon; settings: 64 days, 10 C, individually
brook stickleback = assay: Static bioassay, lethal concentration to brook stickleback; type: in vivo, Eucalia inconstans; settings: 15 C
Method: (§5) Bioassays utilized water from an artesian well at Moscow, Idaho and from the headwaters of the Palouse River, also in Idaho. The chemical characteristics of the artesian water were analyzed as follows: Total hardness 67-120 mg/l; total dissolved solids, 160-175 mg/l; and pH 7.1. The chemistry of the Palouse River water was analyzed as follows: total hardness 17 mg/l; methyl orange alkalinity 26 mg/l; total dissolved solids, 32 mg/l and pH, 7.0.
(§6) Fish were acclimated to test temperatures, usually at 5, 7.5, 10, 15 and 20 degrees Celsius (C), at least 60 hours before exposure to toxicants. For fish and crayfish four water baths regulated the temperature of assay aquaria. Each water bath contained a battery of 20 identical 19-liter clear glass containers or 11.4-liter plastic aquaria lined with disposable polyethylene bags and covered with Plexiglass lids to reduce evaporation. For larger fish and large numbers of fish the bioassays were made in two temperature controlled rooms that contained a series of 700-liter circular fiberglass vats and a series of 76- and 91-liter plastic containers.
(§7) Standard bioassay techniques were used in sorting fish and conducting the tests. Fish were placed in aerated test aquaria overnight to permit fish to recover from stress due to handling and to deprive them of food. The average load varied but most bioassays were conducted with about 1 g of fish per liter of water.
(§8) Aliquots of organophosphates were dissolved in ethanol and dispensed to the aquaria to provide concentrations suitable for obtaining the LC0 and LC50 of desirable fish and the LC50 and LC100 of target fish. Control fish were conditioned in the same manner as the test fish, but no chemical was added to the control vessels during the assays. After the addition of a chemical, observations were made mainly at 3, 6, 12, 24, 48, 96, and 192 h. The weight and fork length of fish were obtained when fishes were sacrificed.
as §1, §2, §3, §4

Kamloops trout = assay: Static bioassay, lethal concentration to Kamloops trout; type: in vivo, Kamloops (an adfluvial rainbow trout)
Method: as §5, §6, §7, §8, §1, §2, §3, §4

[3] = as above; type: in vivo, Kamloops (an adfluvial rainbow trout); settings: kamloops trout, in vivo
Method: as §5, §6, §7, §8, §1, §2, §3, §4

suckers = assay: Control of suckers in 24-hour applications, usable concentration; type: in vivo
Description: For field applications the concentration of the dichloro- and tetrachloro-compounds would vary with water quality--mainly with regard to water temperature and hydrogen ion concentrations. Generally, treated areas would contain water low in dissolved solids and a pH of 7 to 7.5. The activity of the chemicals would then be essentially similar to that determined in our tests using river water. For the treatment of rivers and shorelines of lakes the concentrations of the dichloro- and tetrachloro-compounds that would be used would be those that would kill stickleback or suckers in 12 to 24 hours. The information above, relating to Examples 1 and 12, substantiates improvement in fish culture by the addition of dichloroethyl or dichlorovinyl diethyl phosphate to an aqueous habitat at a concentration in water ranging between 0.1 and 10 mg/l. […] The information above, relating to Example 2, substantiates improvement in fish culture by the addition of tetrachloroethyl diethyl phosphate to an aqueous habitat at a concentration in water ranging between 4 and 80 μg/l.

crayfish = assay: Bioassay, crayfish; type: in vivo, Pacifasticus klamathensis; settings: 10 C
Method: Cursory bioassays were made with small numbers of other fishes and a crayfish (Pacifasticus klamathensis) to check on the universal selectivity of the toxicants. The fishes included Arctic grayling (Thymallus arcticus), longnose sucker (C. catastomus), largescale sucker, (C. macrocheilus), and spotted sucker (Minytrema melanops).
A series of bioassays tested crayfish (9 to 10 crayfish per aquarium) at concentrations of 1, 3, and 10 mg/l of 2, 2-dichlorovinyl diethyl phosphate. […] A second series of bioassays tested crayfish (10 crayfish per aquarium) at 10 concentrations of 2, 2, 2, 1-tetrachloroethyl diethyl phosphate (range, 0 to 1400 μg/l).

threespine stickleback = assay: Long-term static bioassay, threespine stickleback; settings: 32 days, 10 C, individually
[4] = 10 C, individually, read-out: LC50
[5] = with 4 Cl 300:1, 10 C, read-out: LC50 in combination, 2 Cl component
[6] = with 2 Cl 1:300, 10 C, read-out: LC50 in combination, 4 Cl component

CCOP(=O)(OC=C(Cl)Cl)OCC [2,2-dichlorovinyl diethyl phosphate]
LC50 (chinook salmon [1]): 3.4 µg/mL | Safety index (LC0/LC100) (bridgelip sucker; Kamloops, 5 C): 7 | Selectivity index (LC50/LC50) (bridgelip sucker; Kamloops, 5 C): > 34 | Safety index (LC0/LC100) (bridgelip sucker; Kamloops, 10 C): 20 | Selectivity index (LC50/LC50) (bridgelip sucker; Kamloops, 10 C): 67 | Safety index (LC0/LC100) (bridgelip sucker; Kamloops, 15 C): 10 | Selectivity index (LC50/LC50) (bridgelip sucker; Kamloops, 15 C): 70 | Safety index (LC0/LC100) (bridgelip sucker; brook trout, 15 C): 20 | Selectivity index (LC50/LC50) (bridgelip sucker; brook trout, 15 C): 66 | Safety index (LC0/LC100) (bridgelip sucker; chinook, 10 C): 60 | Selectivity index (LC50/LC50) (bridgelip sucker; chinook, 10 C): 87 | Safety index (LC0/LC100) (bridgelip sucker; chinook, 15 C): 27 | Selectivity index (LC50/LC50) (bridgelip sucker; chinook, 15 C): 68 | Safety index (LC0/LC100) (bridgelip sucker; cutthroat, 10 C): 40 | Selectivity index (LC50/LC50) (bridgelip sucker; cutthroat, 10 C): > 60 | Safety index (LC0/LC100) (bridgelip sucker; cutthroat, 15 C): 20 | Selectivity index (LC50/LC50) (bridgelip sucker; cutthroat, 15 C): 50 | Safety index (LC0/LC100) (bridgelip sucker; sockeye, 7.5 C): 30 | Selectivity index (LC50/LC50) (bridgelip sucker; sockeye, 7.5 C): 100 | Safety index (LC0/LC100) (bridgelip sucker; sockeye, 10 C): 30 | Selectivity index (LC50/LC50) (bridgelip sucker; sockeye, 10 C): 75 | Safety index (LC0/LC100) (bridgelip sucker; steelhead, 5 C): 13 | Selectivity index (LC50/LC50) (bridgelip sucker; steelhead, 5 C): 47 | mortality (chinook salmon [2]; 300 μg/l): essentially no mortality | mortality (chinook salmon [2]; 300 μg/l, listed as 2, 2-dichlorovinyl diethyl phosphate): no significant mortality | LC50 (brook stickleback; 24 h): 0.8 µg/mL | LC100 (brook stickleback; 24 h): 1.0 mg/L | LC50 (brook stickleback; 48 h): 0.4 µg/mL | LC100 (brook stickleback; 48 h): 0.6 mg/L | LC50 (brook stickleback; 96 h): 0.4 µg/mL | LC100 (brook stickleback; 96 h): 0.6 mg/L | LC50 (brook stickleback; 192 h): 0.3 µg/mL | LC100 (brook stickleback; 192 h): 0.6 mg/L | LC0 (Kamloops trout; 5 C, 48 h): > 4.0 mg/L | LC0 (Kamloops trout; 5 C, 96 h): 2.0 mg/L | LC0 (Kamloops trout; 5 C, 192 h): 1.4 mg/L | LC0 (Kamloops trout; 10 C, 48 h): > 4.0 mg/L | LC0 (Kamloops trout; 10 C, 96 h): 2.0 mg/L | LC0 (Kamloops trout; 10 C, 96 h, individually): 2 mg/L | LC0 (Kamloops trout; 10 C, 192 h): 1.0 mg/L | LC0 (Kamloops trout; 15 C, 48 h): 3.0 mg/L | LC0 (Kamloops trout; 15 C, 96 h): 1.0 mg/L | LC0 (Kamloops trout; 15 C, 192 h): 1.0 mg/L | LC50 at 192 h ([3]; 5 C, read-out: LC50): 5.1 µg/mL | LC50 at 96 h [3, 4]: 5 µg/mL | LC50 at 96 h ([3]; 10 C, read-out: LC50): 5.4 µg/mL | LC50 at 192 h [3, 4]: 2 µg/mL | LC50 at 192 h ([3]; 10 C, read-out: LC50): 2 µg/mL | LC50 at 96 h ([3]; 15 C, read-out: LC50): 3.5 µg/mL | LC50 at 192 h ([3]; 15 C, read-out: LC50): 3 µg/mL | LC50 at 96 h [3, 5]: 2.4 µg/mL | LC50 at 192 h [3, 5]: 1.5 µg/mL | recommended safe and effective concentration (suckers; 10 to 15 C, river water tests): 1.0 mg/L | crayfish mortality (crayfish; 1 mg/l, 96 h): No crayfish died | crayfish mortality (crayfish; 3 mg/l, 96 h): 1 out of 9 crayfish died | crayfish mortality (crayfish; 10 mg/l, 24 h): No crayfish died | mortality (threespine stickleback; 600 μg/l): 65%

CCOP(=O)(OCC)OC(Cl)C(Cl)(Cl)Cl (centres unmarked) [2,2,2,1-tetrachloroethyl diethyl phosphate]
Safety index (LC0/LC100) (bridgelip sucker; Kamloops, 5 C): 2.4 | Selectivity index (LC50/LC50) (bridgelip sucker; Kamloops, 5 C): 4.3 | Safety index (LC0/LC100) (bridgelip sucker; Kamloops, 10 C): 1.8 | Selectivity index (LC50/LC50) (bridgelip sucker; Kamloops, 10 C): 6.0 | Safety index (LC0/LC100) (bridgelip sucker; Kamloops, 15 C): 2.1 | Selectivity index (LC50/LC50) (bridgelip sucker; Kamloops, 15 C): 6.0 | Safety index (LC0/LC100) (bridgelip sucker; brook trout, 15 C): 1.4 | Selectivity index (LC50/LC50) (bridgelip sucker; brook trout, 15 C): 5.0 | Safety index (LC0/LC100) (bridgelip sucker; chinook, 10 C): 2.4 | Selectivity index (LC50/LC50) (bridgelip sucker; chinook, 10 C): 6.3 | Safety index (LC0/LC100) (bridgelip sucker; coho, 10 C): 1.7 | Selectivity index (LC50/LC50) (bridgelip sucker; coho, 10 C): 5.8 | Safety index (LC0/LC100) (bridgelip sucker; cutthroat, 10 C): 1.7 | Selectivity index (LC50/LC50) (bridgelip sucker; cutthroat, 10 C): 4.8 | Safety index (LC0/LC100) (bridgelip sucker; cutthroat, 15 C): 2.0 | Selectivity index (LC50/LC50) (bridgelip sucker; cutthroat, 15 C): 4.5 | Safety index (LC0/LC100) (bridgelip sucker; kokanee, 15 C): 2.9 | Selectivity index (LC50/LC50) (bridgelip sucker; kokanee, 15 C): 7.5 | Safety index (LC0/LC100) (bridgelip sucker; sockeye, 10 C): 1.4 | Selectivity index (LC50/LC50) (bridgelip sucker; sockeye, 10 C): 7.5 | mortality (chinook salmon [2]; 6 μg/l (or less)): Essentially no mortality | mortality (chinook salmon [2]; 6 μg/l (or less), listed as 2, 2, 2, 1-tetrachloroethyl diethyl phosphate): no significant mortality | LC50 (brook stickleback; 24 h): 0.006 µg/mL | LC100 (brook stickleback; 24 h): 0.01 mg/L | LC100 (brook stickleback; 48 h): 0.008 mg/L | LC100 (brook stickleback; 96 h): 0.006 mg/L | LC0 (Kamloops trout; 5 C, 96 h): 0.024 mg/L | LC0 (Kamloops trout; 5 C, 192 h): 0.012 mg/L | LC0 (Kamloops trout; 10 C, 96 h, individually, listed as 2, 2, 2, 1-tetrachloroethyl diethyl phosphate): 0.018 mg/L and 0.014 mg/L | LC0 (Kamloops trout; 10 C, 96 h, individually, listed as 4 Cl): 0.014 mg/L | LC0 (Kamloops trout; 10 C, 192 h): 0.01 mg/L | LC0 (Kamloops trout; 15 C, 96 h): 0.024 mg/L | LC0 (Kamloops trout; 15 C, 192 h): 0.014 mg/L | LC50 at 96 h ([3]; 5 C, read-out: LC50): > 0.03 µg/mL | LC50 at 192 h ([3]; 5 C, read-out: LC50): 0.018 µg/mL | LC50 at 96 h [3, 4]: 0.024 µg/mL | LC50 at 192 h [3, 4]: 0.02 µg/mL | LC50 at 96 h ([3]; 15 C, read-out: LC50): > 0.024 µg/mL | LC50 at 192 h ([3]; 15 C, read-out: LC50): > 0.024 µg/mL | LC50 at 96 h [3, 6]: 0.008 µg/mL | LC50 at 192 h [3, 6]: 0.005 µg/mL | estimated LC100 of the sucker (suckers; relative to 6 to 4 μg/l for stickleback, 10 C): essentially the same | concentration at which no crayfish died (crayfish; 96 h): ≤ 200 ng/mL | mortality (threespine stickleback; 4 μg/l): 100%
